Assay results as given in the supplement of paper PMC13380429.

Legend:
Conditions in all cases: 72 h
Caco-2 [1] = assay: cell viability relative to DMSO; higher = less toxic
Calu-3 [2] = assay: as above
HepG2 [3] = assay: as above
U2OS [4] = assay: as above
Caco-2 [5] = assay: relative viability EC50 (midpoint between 100% and the lowest measured viability); higher = less toxic
Calu-3 [6] = assay: as above
HepG2 [7] = assay: as above
U2OS [8] = assay: as above
Caco-2 [9] = assay: drug sensitivity score (DSS) for viability; higher = more toxic; extreme values may be limits of the assay
Calu-3 [10] = assay: as above
HepG2 [11] = assay: as above
U2OS [12] = assay: as above
Vero E6 [13] = assay: cell viability relative to DMSO; higher = less toxic
Vero E6 [14] = assay: relative viability EC50 (midpoint between 100% and the lowest measured viability); higher = less toxic
Vero E6 [15] = assay: drug sensitivity score (DSS) for viability; higher = more toxic; extreme values may be limits of the assay

SMILES	cell viability (Caco-2 [1]; 1 nM) [%]	cell viability (Caco-2 [1]; 10 nM) [%]	cell viability (Caco-2 [1]; 100 nM) [%]	cell viability (Caco-2 [1]; 1000 nM) [%]	cell viability (Caco-2 [1]; 10000 nM) [%]	cell viability (Calu-3 [2]; 1 nM) [%]	cell viability (Calu-3 [2]; 10 nM) [%]	cell viability (Calu-3 [2]; 100 nM) [%]	cell viability (Calu-3 [2]; 1000 nM) [%]	cell viability (Calu-3 [2]; 10000 nM) [%]	cell viability (HepG2 [3]; 1 nM) [%]	cell viability (HepG2 [3]; 10 nM) [%]	cell viability (HepG2 [3]; 100 nM) [%]	cell viability (HepG2 [3]; 1000 nM) [%]	cell viability (HepG2 [3]; 10000 nM) [%]	cell viability (U2OS [4]; 1 nM) [%]	cell viability (U2OS [4]; 10 nM) [%]	cell viability (U2OS [4]; 100 nM) [%]	cell viability (U2OS [4]; 1000 nM) [%]	cell viability (U2OS [4]; 10000 nM) [%]	relative viability EC50 (Caco-2 [5]) [µM]	relative viability EC50 (Calu-3 [6]) [µM]	relative viability EC50 (HepG2 [7]) [µM]	relative viability EC50 (U2OS [8]) [µM]	drug sensitivity score (Caco-2 [9])	drug sensitivity score (Calu-3 [10])	drug sensitivity score (HepG2 [11])	drug sensitivity score (U2OS [12])	cell viability (Vero E6 [13]; 1 nM) [%]	cell viability (Vero E6 [13]; 10 nM) [%]	cell viability (Vero E6 [13]; 100 nM) [%]	cell viability (Vero E6 [13]; 1000 nM) [%]	cell viability (Vero E6 [13]; 10000 nM) [%]	relative viability EC50 (Vero E6 [14]) [µM]	drug sensitivity score (Vero E6 [15])
Nc1nc(N)nc(-c2cc(Cl)ccc2Cl)n1 [irsogladine]	101	99	101	102	108	112	93.7	91.5	110	99.1	89.4	93.9	94.6	93.5	105	105	97.3	101	100	99.2	> 10	> 10	> 10	> 10	0	0	0	0							
CC(C)(C)c1cc(C(C)(C)C)c(NC(=O)c2c[nH]c3ccccc3c2=O)cc1O [ivacaftor]	104	98.8	99.6	101	81.6	97.2	103	93.3	91.1	84.1	105	105	100	100	98.3	100	103	95.3	103	86.8	> 10	> 10	> 10	> 10	0.4	0.7	0	0.1							
CCC[C@@H]1C[C@@H](C(=O)N[C@@H]([C@H]2O[C@H](SC)[C@H](O)[C@@H](O)[C@H]2O)[C@@H](C)O)N(C)C1 [lincomycin]	111	94.2	107	97.2	111	99.5	92.6	99.1	98.7	103											> 10	> 10			0	0			97.6	103	94.9	89.6	101	> 10	0
C[C@@H](O)[C@H]1C(=O)N2C(C(=O)O)=C(S[C@@H]3CN[C@H](C(=O)N(C)C)C3)[C@H](C)[C@H]12 [meropenem]	83.8	99.6	91.3	111	84.3	96.1	109	88.9	104	98.5						101	102	99.9	104	102	> 10	> 10		> 10	0.1	0		0							
O=S(=O)(F)Cc1ccccc1 [phenylmethylsulfonyl-fluoride]	102	95.6	103	99.7	99.2	105	101	103	98.6	102	109	114	97.8	111	96.7	106	99.8	104	102	101	> 10	> 10	> 10	> 10	0	0	0	0							
